In patent publication US10883088B2, “Biological upgrading of hydrocarbon streams with oxygenases” (priority 2017, dated 2021):

How the values were obtained:
HmuO = assay: UV-VIS Soret band screen of model porphyrins with HmuO; assay type: biochemical, C. jeikeium; details: porphyrin treated with HmuO; UV-VIS absorbance, room temperature; shift vs Control indicates protein-porphyrin interaction
Description: (§1) A shift in the wavelength of maximal absorbance, commonly referred to as the “Soret band,” indicates a change in porphyrin conformation or a protein-porphyrin interaction.
(§2) To prepare crude protein, aliquots were thawed on ice and diluted 4-fold with protein assay buffer (PAB). To isolate purified oxygenases, protein aliquots were thawed on ice and proteins of interest were purified by HIS-tag-Ni-NTA column affinity followed by size exclusion chromatography with PD-10 desalting columns. Purified protein was eluted in PAB, collected in the first 2 mL PD-10 column flow-through fraction. Relative to the initial protein concentration, samples were diluted 4-fold to parallel crude protein samples.
(§3) Model porphyrin stocks were prepared in porphyrin phosphate buffer (PPB), stored at 4° C. in amber bottles to protect samples from light, and used or discarded within one month.
(§4) Amber tubes were used for all assays to protect samples from light. Crude and purified protein samples were combined with porphyrin substrates, to achieve final concentrations in Table 4, and total assay volumes were raised to 10 mL with Tris buffer. Absorbance of a 2.4 mL sample was measured in a 1 cm quartz cuvette, at room temperature, 1 nm resolution, and 0.7 sec. integration time on an Evolution201® UV-VIS spectrophotometer with Thermo INSIGHT® software. Samples were incubated for 24 hrs. at room temperature and 75 RPM and their final UV-VIS absorbance spectra was measured.

ChuS = assay: UV-VIS Soret band screen of model porphyrins with ChuS; assay type: biochemical, E. coli; details: porphyrin treated with ChuS; UV-VIS absorbance, room temperature; shift vs Control indicates protein-porphyrin interaction
Description: (§5) UV-VIS spectroscopy was used for initial screening of protein activity against numerous model compounds because each model porphyrin has a characteristic UV-VIS absorbance spectrum. A shift in the wavelength of maximal absorbance, commonly referred to as the “Soret band,” indicates a change in porphyrin conformation or a protein-porphyrin interaction.
as §2, §3
as §4, with “measured. An absorbance baseline was collected using Tris buffer at the beginning of each time point and ≤1% error was observed between technical replicates. Crude, empty pET28b vector (EV) strain lysate protein and PAB only controls were run in parallel with experimental samples (EXP) for each porphyrin.” for “measured.”

HugZ = target: T1, HugZ (Helicobacter pylori, UniProt O25087); assay: UV-VIS Soret band screen of model porphyrins with HugZ; assay type: biochemical, H. pylori; details: porphyrin treated with HugZ; UV-VIS absorbance, room temperature; shift vs Control indicates protein-porphyrin interaction
T1 construct: Expression plasmids were constructed by inserting the gene for each oxygenase into the base vector pET28b; His-tag (N); made in house; host or cells: E. coli BL21-DE3(T1), pET28b
Description: as §5, §2, §3
as §4, with “measured. An absorbance baseline was collected using Tris buffer at the beginning of each time point and ≤1% error was observed between technical replicates. Crude, empty pET28b vector (EV) strain lysate protein and PAB only controls were run in parallel with experimental samples (EXP) for each porphyrin.” for “measured.”

PigA = target: T2, PigA (Pseudomonas aeruginosa, UniProt G3XCZ8); assay: UV-VIS Soret band screen of model porphyrins with PigA; assay type: biochemical, P. aeruginosa; details: porphyrin treated with PigA; UV-VIS absorbance, room temperature; shift vs Control indicates protein-porphyrin interaction
T2 construct: Expression plasmids were constructed by inserting the gene for each oxygenase into the base vector pET28b; His-tag (N); made in house; host or cells: E. coli BL21-DE3(T1), pET28b
Description: as §1, §2, §3, §4

IsdI = target: T3, IsdI (Staphylococcus aureus, UniProt Q99X56); assay: UV-VIS Soret band screen of model porphyrins with IsdI; assay type: biochemical, S. aureus; details: porphyrin treated with IsdI; UV-VIS absorbance, room temperature; shift vs Control indicates protein-porphyrin interaction
T3 construct: Expression plasmids were constructed by inserting the gene for each oxygenase into the base vector pET28b; His-tag (N); made in house; host or cells: E. coli BL21-DE3(T1), pET28b
Description: as §5, §2, §3
as §4, with “measured. An absorbance baseline was collected using Tris buffer at the beginning of each time point and ≤1% error was observed between technical replicates. Crude, empty pET28b vector (EV) strain lysate protein and PAB only controls were run in parallel with experimental samples (EXP) for each porphyrin.” for “measured.”

IsdG = target: T4, IsdG (Staphylococcus aureus, UniProt Q99UW8); assay: UV-VIS Soret band screen of model porphyrins with IsdG; assay type: biochemical, S. aureus; details: porphyrin treated with IsdG; UV-VIS absorbance, room temperature; shift vs Control indicates protein-porphyrin interaction
T4 construct: Expression plasmids were constructed by inserting the gene for each oxygenase into the base vector pET28b; His-tag (N); made in house; host or cells: E. coli BL21-DE3(T1), pET28b
Description: as §5, §2, §3
as §4, with “measured. An absorbance baseline was collected using Tris buffer at the beginning of each time point and ≤1% error was observed between technical replicates. Crude, empty pET28b vector (EV) strain lysate protein and PAB only controls were run in parallel with experimental samples (EXP) for each porphyrin.” for “measured.”

Compound	Soret band wavelength (HmuO) [nm]	Soret band wavelength (ChuS)	Soret band wavelength (HugZ) [nm]	Soret band wavelength (PigA) [nm]	Soret band wavelength (IsdI) [nm]	Soret band wavelength (IsdG) [nm]
O=C(O)c1ccc(-c2c3nc(c(-c4ccc(C(=O)O)cc4)c4ccc([n-]4)c(-c4ccc(C(=O)O)cc4)c4nc(c(-c5ccc(C(=O)O)cc5)c5ccc2[n-]5)C=C4)C=C3)cc1.[Ni+2] [Ni(II)-meso-tetra-(4-carboxyphenyl) porphine]	405	410/405	400	404	400	400
C[n+]1ccc(-c2c3nc(c(-c4cc[n+](C)cc4)c4ccc([n-]4)c(-c4cc[n+](C)cc4)c4nc(c(-c5cc[n+](C)cc5)c5ccc2[n-]5)C=C4)C=C3)cc1.[Cl-].[Cl-].[Cl-].[Cl-].[Ni+2] [Ni(II)-meso-tetra-(Nmethyl-4-pyridyl) porphine tetrachloride]	440	440 nm	–	–	–	–
C=CC1=C(C)c2cc3[n-]c(cc4[n-]c(cc5nc(cc1n2)C(C)=C5C=C)c(C)c4CCC(=O)[O-])c(CCC(=O)[O-])c3C.[H+].[H+].[Ni+2] [Ni(II)-protoporphyrin (IX)]	400	400 nm	417	400	400	400
C[n+]1ccc(-c2c3nc(c(-c4cc[n+](C)cc4)c4ccc([n-]4)c(-c4cc[n+](C)cc4)c4nc(c(-c5cc[n+](C)cc5)c5ccc2[n-]5)C=C4)C=C3)cc1.[Cl-].[Cl-].[Cl-].[Cl-].[O]=[V+2] [VO-meso-tetra-(N-methyl-4-pyridyl), VO-meso-tetra-(N-methyl-4-pyridyl) porphine tetrachloride]	422	422 nm	–	–	–	–
Fe(III)-meso-tetra-(4-carboxyphenyl) porphine chloride	417	424/420	418	414	410	410
hemin	399	405/400	405	400	390	390
